Measured values published in patent US20200148718A1, “PHARMACEUTICAL-GRADE 20-HYDROXYECDYSONE EXTRACT, USE OF SAME AND PREPARATION THEREOF” (BIOPHYTIS, priority 2017, published 2020).

What was measured:
[1] = system: nuclear receptors of the androgens or of the oestrogens; details: Lapenna et al., 2015; cited from earlier work
[2] = Bioavailability with respect to 20E; details: relative to 20E
[3] = pure molecule, data of the literature; cited from earlier work
[4] = Phase I clinical trial, single administrations (SAD), plasma pharmacokinetics; assay type: in vivo, humans; details: SAD cohorts, FIG. 3
Method: In the context of a phase I clinical trial, the plasma concentrations of BIO101 were measured after single administrations (SAD) of 100, 350, 700 and 1400 mg/day in individuals on an empty stomach. Repeated administrations (MAD) over 14 days were then carried out with a single daily dose of 350 mg or with two daily doses (morning and evening) of 350 mg and 450 mg. These administrations of BIO101 to various cohorts of volunteers (n=6) allowed to determine the main pharmacokinetic parameters of BIO101: Cmax (maximum plasma concentration of BIO101 after single or repeated), Cmin (minimum plasma concentration of BIO101 after single or repeated administration), Tmax (time necessary to reach the maximum plasma concentration of BIO101 after single or repeated administration), and AUC (Area under curve) synonymous with level of plasma exposure.
The average profile of the cohorts of the SAD is presented in FIG. 3 in which Y are young volunteers and O are volunteers, the age of which is between 65 and 85 years. […] The half-life of the 20E is approximately 3-4 hours.

Q: With `C[C@]12C[C@H](O)[C@H](O)C[C@H]1C(=O)C=C1[C@@H]2CC[C@]2(C)C(=O)CC[C@@]12O` [rubrosterone, Rubrosterone] as the compound, how does the “Interaction with nuclear receptors of the androgens or of the oestrogens” value (from here on “Interaction with nuclear receptors”) [1] read?
A: capable of interacting

Q: Which “Interaction with nuclear receptors” value [1] does the source give for `CC12CC(O)C(O)CC1C(=O)C=C1C2CCC2(C)C(O)CCC12O` (centres unmarked) [dihydrorubrosterone, Dihydrorubrosterone] here?
A: capable of interacting

Q: With `CC(=O)[C@H]1CC[C@@]2(O)C3=CC(=O)[C@@H]4C[C@@H](O)[C@@H](O)C[C@]4(C)[C@H]3CC[C@]12C` [poststerone, Poststerone] as the compound, how does the “Bioavailability with respect to 20E” value [2] read?
A: approximately twenty times better

Q: What about the “Interaction with nuclear receptors” value [1] of the same compound?
A: capable of interacting

Q: Which results are given for `CC(C)(O)CC[C@@H](O)[C@](C)(O)[C@H]1CC[C@@]2(O)C3=CC(=O)[C@@H]4C[C@@H](O)[C@@H](O)C[C@]4(C)[C@H]3CC[C@]12C` [20E, 20-hydroxyecdysone]?
A: Cytotoxicity [3]: slightly cytotoxic; Bioavailability [4]: low bioavailability; Elimination of the active ingredient from plasma [4]: almost totally disappears after 24 hours; Half-life [4]: 3 to 4 h
